Earlier results in patent US20070093743A1, “Iontophoresis Drug Delivery Device Providing Acceptable Depth and Duration of Dermal Anesthesia” (Vyteris, Inc., priority 2005, published 2007).

Settings: iontophoresis in vitro across human skin

Cumulative delivery compared with lidocaine, slightly greater delivery:
CCCN(CC)C(CC)C(=O)Nc1c(C)cccc1C (stereo not drawn) [etidocaine]
CCCNC(C)C(=O)Nc1ccccc1C (stereo not drawn) [prilocaine]
CCN(CC)CCOC(=O)c1ccc(N)cc1 [procaine]
